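Compound exposure: 48 hours, 5 concentrations, 96-well plates. Here, GI50 denotes the concentration required for 50% inhibition of growth.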 Calls of active or inactive are those of the source. Rule as the data show it: active = GI50 up to about 1.1 µM and inactive = higher.
How the values were obtained:
Test in all cases: inhibition of tumour cell growth, NCI panel, 48 h
SK-MEL-28 = test system: SK-MEL-28
UACC-62 = test system: UACC-62
NCI-H226 = test system: NCI-H226
TK-10 = test system: TK-10
U-251 = test system: U-251
SK-MEL-5 = test system: SK-MEL-5
A549 = test system: A549
Malme-3M = test system: Malme-3M
NCI-H23 = test system: NCI-H23
786-0 = test system: 786-0
EKVX = test system: EKVX
HCT-15 = test system: HCT-15
OVCAR-3 = test system: OVCAR-3
NCI-H522 = test system: NCI-H522
HCC 2998 = test system: HCC 2998
SF-295 = test system: SF-295
UACC-257 = test system: UACC-257
IGROV-1 = test system: IGROV-1
LOX IMVI = test system: LOX IMVI

Measured: GI50

CCOc1ccc(N/C(=C(/C(Cl)=C(/Cl)Nc2ccccc2)[N+](=O)[O-])n2nnc3ccccc32)cc1
12.8 µM: HCT-15
inactive: SK-MEL-28 22.8 µM | UACC-62 17.8 µM | NCI-H226 40.1 µM | TK-10 32.9 µM | U-251 18.2 µM | SK-MEL-5 17.7 µM | A549 29.1 µM | Malme-3M 21.9 µM | NCI-H23 13.7 µM | 786-0 22.2 µM | EKVX 28.8 µM | OVCAR-3 24.1 µM | NCI-H522 14 µM | HCC 2998 37.7 µM | SF-295 51.3 µM | UACC-257 34.6 µM

O=S(=O)(c1ccccc1)N1CCC1c1ccccc1 (stereo unspecified)
> 100 µM: HCT-15
inactive: IGROV-1 > 100 µM | SK-MEL-28 > 100 µM | UACC-62 77.8 µM | NCI-H226 > 100 µM | LOX IMVI > 100 µM | TK-10 > 100 µM | U-251 > 100 µM | SK-MEL-5 > 100 µM | A549 > 100 µM | Malme-3M > 100 µM | NCI-H23 > 100 µM | 786-0 > 100 µM | EKVX > 100 µM | OVCAR-3 > 100 µM | NCI-H522 98.9 µM | HCC 2998 > 100 µM | SF-295 > 100 µM | UACC-257 63.2 µM

Sc1ccccc1S
inactive: IGROV-1 > 100 µM | SK-MEL-28 > 100 µM | UACC-62 > 100 µM | LOX IMVI > 100 µM | TK-10 > 10 µM | U-251 > 100 µM | A549 > 100 µM | Malme-3M > 100 µM | NCI-H23 > 100 µM | 786-0 > 100 µM | EKVX > 10 µM | OVCAR-3 > 100 µM | HCC 2998 > 100 µM | SF-295 > 100 µM
> 100 µM: HCT-15

CC(=O)C(C(C)=O)[C@H]1OC(C)(C)O[C@H]1[C@H]1COC(C)(C)O1
inactive: IGROV-1 53.5 µM | SK-MEL-28 97.3 µM | UACC-62 43.2 µM | LOX IMVI 32.7 µM | TK-10 > 100 µM | U-251 24.9 µM | SK-MEL-5 29.1 µM | A549 42.6 µM | Malme-3M > 100 µM | NCI-H23 30.8 µM | 786-0 51.3 µM | EKVX 50.6 µM | OVCAR-3 28.6 µM | NCI-H522 33.8 µM | HCC 2998 26.5 µM | SF-295 29.2 µM | UACC-257 49.4 µM
29.6 µM: HCT-15

COc1ccc(N(c2ccc(C#N)cc2)c2ccc(C#N)cc2)cc1
inactive: IGROV-1 23.7 µM | SK-MEL-28 > 100 µM | UACC-62 > 100 µM | NCI-H226 > 100 µM | LOX IMVI 69.8 µM | TK-10 > 100 µM | U-251 > 100 µM | SK-MEL-5 > 100 µM | A549 > 100 µM | NCI-H23 29.4 µM | 786-0 > 100 µM | EKVX > 100 µM | OVCAR-3 82.4 µM | NCI-H522 3.78 µM | SF-295 > 100 µM | UACC-257 > 100 µM
75.2 µM: HCT-15

CCC1(C)C=Cc2c(cc(OC)c3c(=O)c4ccccc4n(C)c23)O1 (stereo unspecified)
inactive: IGROV-1 > 10 µM | SK-MEL-28 9.16 µM | UACC-62 9.98 µM | NCI-H226 > 10 µM | LOX IMVI > 10 µM | TK-10 > 10 µM | U-251 > 10 µM | SK-MEL-5 > 10 µM | A549 3.94 µM | Malme-3M > 10 µM | NCI-H23 > 10 µM | 786-0 5.27 µM | EKVX > 10 µM | OVCAR-3 9.55 µM | NCI-H522 > 10 µM | HCC 2998 > 10 µM | SF-295 3.56 µM | UACC-257 > 10 µM
7.23 µM: HCT-15

CCCCCCCCCCCCCCCCOCC(Cl)COP(=O)(O)OP(=O)(O)OCC1OC(n2cnc3c(N)ncnc32)C(O)C1O (stereo unspecified)
inactive: IGROV-1 > 100 µM | SK-MEL-28 > 100 µM | UACC-62 > 100 µM | NCI-H226 36.7 µM | LOX IMVI 75.9 µM | TK-10 > 100 µM | U-251 > 100 µM | SK-MEL-5 > 100 µM | A549 > 100 µM | Malme-3M > 100 µM | NCI-H23 > 100 µM | 786-0 > 100 µM | EKVX > 100 µM | OVCAR-3 > 100 µM | NCI-H522 > 100 µM | HCC 2998 > 100 µM | SF-295 > 100 µM | UACC-257 > 100 µM
> 100 µM: HCT-15

COS(=O)CCOC(=O)c1ccccc1SSc1ccccc1C(=O)OCCS(=O)OC (stereo unspecified)
23.8 µM: HCT-15
inactive: IGROV-1 > 100 µM | SK-MEL-28 30.7 µM | UACC-62 20.5 µM | LOX IMVI 22.2 µM | TK-10 81.8 µM | U-251 69.7 µM | SK-MEL-5 67 µM | A549 > 100 µM | Malme-3M 18.6 µM | NCI-H23 20.2 µM | 786-0 20.3 µM | EKVX > 100 µM | OVCAR-3 22.1 µM | NCI-H522 4.78 µM | SF-295 33.2 µM | UACC-257 15.6 µM

Source: ChEMBL document CHEMBL1201862, “PubChem BioAssay data set” (2004)
